Earlier results in patent US6488962B1, “Tablet shapes to enhance gastric retention of swellable controlled-release oral dosage forms” (DepoMed, Inc., priority 2000, dated 2002).

Conditions: oral doses administered with or following a meal

area under the plasma concentration-time curve, with or following a meal versus without: two to three times greater | peak plasma concentration, with or following a meal versus without: two to three times greater
Structure (SMILES): Cc1c(O)cccc1C(=O)N[C@@H](CSc1ccccc1)[C@H](O)CN1C[C@H]2CCCC[C@H]2C[C@H]1C(=O)NC(C)(C)C [nelfinavir]
